Measurements published in patent US7888357B2, “Anti-inflammatory and protein kinase inhibitor compositions and related methods for downregulation of detrimental cellular responses and inhibition of cell death” (Northwestern University, priority 2001, dated 2011).

Key:
protein kinase A (PKA) = biological target: T1, protein kinase A (PKA) (Bos taurus, UniProt P00517); experiment: Reconstituted enzyme assay, PKA; format: biochemical, bovine; conditions: γ-[32P]-ATP, synthetic peptide substrate
T1 construct: bovine heart PKA from Promega; purchased Promega; host or cells: bovine heart
Method: [table] […] The rationale for using BV-2 cells in high throughput screening was the paucity of well-characterized human microglial cell lines, and the relevant activation responses and signaling pathways reflect those seen in human and rodent primary microglial cultures. Compounds were tested for their effects on NO accumulation in conditioned media of LPS-stimulated BV-2 cells by measurement of nitrite production by the Griess assay as a read-out for iNOS activity, as described previously. Stock solutions of compounds were prepared in dimethylsulfoxide (DMSO) or in water. When stock solutions were prepared in DMSO, control wells contained the same final concentration of DMSO as the compound-containing wells. […] Solutions of compounds for cell treatments were diluted to a 10× final concentration by dilution of stock solutions in αMEM media. […] Reconstituted enzyme assays were done as described s. The sources of protein kinases were: bovine heart PKA from Promega, rat brain PKC from Calbiochem, rat CaMKII from New England Biolabs, chicken gizzard MLCK prepared as described, and a p38 MAP kinase kit containing recombinant Xenopus p38-MAPK and its human substrate from Upstate Biotechnology. […]

rat astrocytes = experiment: Western blot of glial activation responses in rat astrocyte cultures; format: cell-based; conditions: for GFAP levels: activated rat astrocytes
Method: FIG. 2. Selective effects of compound 1 (MW01-070C) on glial activation responses and gene-regulating protein kinase pathways. BV-2 cells and rat astrocytes were treated with control buffer (C) or stimulated with LPS or Aβ1-42 peptide in the presence or absence of compound 1, and cell lysates were analyzed by Western blots. (A) Astrocytes treated with LPS and compound 1 show concentration-dependent inhibition of iNOS and IL-1β production but not GFAP. (B) Astrocytes treated with A β1-42 and compound 1 (10 μM) show inhibition of iNOS and IL-1β but not apoE and COX-2. (C) BV-2 cells treated with LPS and compound 1 (10 μM) show inhibition of phosphorylated (p-) CREB but not p-p38 and p-ATF2, as assayed with antibodies that are specific for the phosphorylated forms of the proteins. Data are expressed as percent control (mean±SD; n=3 determinations).
The rationale for using BV-2 cells in high throughput screening was the paucity of well-characterized human microglial cell lines, and the relevant activation responses and signaling pathways reflect those seen in human and rodent primary microglial cultures. Compounds were tested for their effects on NO accumulation in conditioned media of LPS-stimulated BV-2 cells by measurement of nitrite production by the Griess assay as a read-out for iNOS activity, as described previously. Stock solutions of compounds were prepared in dimethylsulfoxide (DMSO) or in water. When stock solutions were prepared in DMSO, control wells contained the same final concentration of DMSO as the compound-containing wells. […] Solutions of compounds for cell treatments were diluted to a 10× final concentration by dilution of stock solutions in αMEM media. The commercially available drugs tested were: compound 5 (KN93 from Alexis); compound 6 (pyrrolidinedithiocarbamate or PDTC from Sigma), compound 7 (SB203580 from Alexis Corporation), compound 8 (PD98059 from Alexis Corporation), and compound 9 (UO126 from Cell Signaling). SB203580, U0126 and PD98059, PDTC, and KN93 are used as pathway-selective inhibitors of p38 MAPK, MEK1/2, NFκB, and CaMKII signaling pathways. Respectively, Western blots of cell lysates were done with the following antibodies: monoclonal anti-iNOS (1:1000 dilution, Transduction Labs); polyclonal anti-rat IL-1β (1:1000 dilution, R&D Systems, Inc.); monoclonal anti-glial fibrillary acidic protein (GFAP) (1:[…] dilution, Sigma); polyclonal anti-rat alioE (1:15,000 dilution) prepared as described; polyclonal anti-COX-2 (1:500 dilution) and monoclonal anti-phosphoATF2 (1:1000 dilution) from Santa Cruz Biotechnology, polyclonal anti-phosphoCREB (1:1000 dilution), and polyclonal anti-phosphop38 MAPK (1:1000 dilution). Reconstituted enzyme assays were done as described s. The sources of protein kinases were: bovine heart PKA from Promega, rat brain PKC from Calbiochem, rat CaMKII from New England Biolabs, chicken gizzard MLCK prepared as described, and a p38 MAP kinase kit containing recombinant Xenopus p38-MAPK and its human substrate from Upstate Biotechnology. The catalytic domains of these protein kinases retain a high level of amino acid sequence identity across mammalian species, consistent with the lack of documented major differences across species for the in vitro catalytic activity of a given kinase.
FIG. 5. Effects of two compounds on LPS-stimulated INOS and IL-1β production in rat astrocyte cultures. Astrocyte cultures were incubated for 24 hr with control buffer (C), LPS (100 ng/ml) alone, or LPS in the presence of increasing concentrations (0.1, 0.3, 1, 3, 10 μM) of MW01-070C (panel A) or MW01-196A (panel B). The levels of iNOS, proIL-1β, and GFAP were determined by Western blot of cell lysates.
FIG. 6. Effects of MW01-070C on astrocytes treated with various activating stimuli, and analysis of multiple activation responses. Astrocyte cultures were stimulated for 12 hr with Aβ (10 μM), S100B (0.5 μM), or LPS (100 ng/ml) in the absence (−) or presence (+) of MW01-070C (10 μM). […]

[1] = LPS-stimulated rat astrocytes, 24 hr, Western blot
[2] = LPS-stimulated rat astrocytes, 24 hr, Western blot, listed as 1
[3] = activated astrocytes, compound 10 μM
[4] = astrocytes stimulated by S100 (0.5 μM), 12 hr, compound 10 μM
[5] = glia stimulated by Aβ1-42, compound 10 μM

N=c1cc2c(nn1CCCCCCCCCCC(=O)N1CCN(c3ncccn3)CC1)-c1ccccc1CC2 [MW01-070C]
IC50 (protein kinase A (PKA)): > 100 µM
IL-1β production (rat astrocytes; [1]): dose dependent inhibition
iNOS production (rat astrocytes; [1]): dose dependent inhibition
IL-1β production (rat astrocytes; [2]): inhibits
iNOS production (rat astrocytes; [2]): inhibits
COX-2 levels (rat astrocytes; [3]): no effect
apoE production (rat astrocytes; [3]): no effect
GFAP levels (rat astrocytes; Western blot): no change
GFAP levels (rat astrocytes; Western blot, listed as 1): not changed
IL-1β production (rat astrocytes; [4]): inhibits
iNOS production (rat astrocytes; [4]): inhibits
IL-1β production (rat astrocytes; [5]): inhibits
iNOS production (rat astrocytes; [5]): inhibits
